Results as given in patent publication US5968910A, “Compositions containing two or three inhibitors of different HIV reverse transcriptases” (priority 1994, dated 1999).

System: HIV-1
Test: Breakthrough of mutant HIV-1 strains in CEM cell cultures, single drugs and double/triple combinations
Format: cell-based
Procedure: The culture medium consisted of RPMI 1640 containing 10% fetal bovine serum, 2 mM L-glutamine, and 0.075% NaHCO3. The multiplicity of the initial infection was ~1000 times the CCID50 (50% cell culture infective dose). Passages were performed every 3 to 4 days by adding 0.5 to 1.0 ml of the infected culture supernatant to 5 ml of a suspension containing 4×10^5 uninfected CEM cells per ml. Syncytium formation was used as a parameter of virus breakthrough in the cell cultures. In the drug combination experiments, the compounds were combined at the same initial concentrations as used for the two lowest concentrations in the single-drug experiments.
Compound IV, BHAP and TSAO-m^3 T were added to HIV-1-infected CEM cell cultures at 0.04, 0.10 and 0.25 ug/ml (Compound IV and BHAP) or 1.0, 2.5 and 5.0 μg/ml (TSAO-m^3 T). In addition, various double- and triple-drug combinations of Compound IV, BHAP and TSAO-m^3 T were performed, combining these inhibitors at their lowest (0.04 μg/ml) or intermediary (0.1 μg/ml) concentration as used in the single-drug experiments.

**Q.** How did the “HIV-1-induced syncytium formation in CEM cells” value (single drug 1.0 μg/ml, day 4 post infection) turn out when `Cc1cn([C@@H]2O[C@H](CO[Si](C)(C)C(C)(C)C)[C@@]3(OS(=O)(=O)C=C3N)[C@H]2O[Si](C)(C)C(C)(C)C)c(=O)n(C)c1=O` [TSAO-m^3 T] was run?
**A.** Its value is 0 percentage of control.

**Q.** What about the “HIV-1-induced syncytium formation in CEM cells” value (single drug 1.0 μg/ml, day 7 post infection) of the same molecule?
**A.** Its value is 0 percentage of control.

**Q.** What about the “HIV-1-induced syncytium formation in CEM cells” value (single drug 1.0 μg/ml, day 11 post infection) of the same molecule?
**A.** The value was 0 percentage of control.

**Q.** What about the “HIV-1-induced syncytium formation in CEM cells” value (single drug 1.0 μg/ml, day 14 post infection) of the same molecule?
**A.** The value was 12.5 percentage of control.

**Q.** What about the “HIV-1-induced syncytium formation in CEM cells” value (single drug 1.0 μg/ml, day 18 post infection) of the same molecule?
**A.** Its value is 75 percentage of control.

**Q.** What about the “HIV-1-induced syncytium formation in CEM cells” value (single drug 1.0 μg/ml, day 21 post infection) of the same molecule?
**A.** The value was 100 percentage of control.

**Q.** What about the “HIV-1-induced syncytium formation in CEM cells” value (single drug 1.0 μg/ml, day 25 post infection) of the same molecule?
**A.** The value was 100 percentage of control.

**Q.** And the “HIV-1-induced syncytium formation in CEM cells” value (single drug 1.0 μg/ml, day 28 post infection)?
**A.** Its value is 100 percentage of control.

**Q.** And the “HIV-1-induced syncytium formation in CEM cells” value (single drug 1.0 μg/ml, day 32 post infection)?
**A.** Its value is 100 percentage of control.

**Q.** What about the “HIV-1-induced syncytium formation in CEM cells” value (single drug 1.0 μg/ml, day 35 post infection) of the same molecule?
**A.** The value was 100 percentage of control.

**Q.** And the “HIV-1-induced syncytium formation in CEM cells” value (single drug 1.0 μg/ml, day 39 post infection)?
**A.** The value was 100 percentage of control.

**Q.** What about the “HIV-1-induced syncytium formation in CEM cells” value (single drug 1.0 μg/ml, day 42 post infection) of the same molecule?
**A.** Its value is 100 percentage of control.

**Q.** What about the “HIV-1-induced syncytium formation in CEM cells” value (single drug 1.0 μg/ml, day 46 post infection) of the same molecule?
**A.** Its value is 100 percentage of control.

**Q.** And the “HIV-1-induced syncytium formation in CEM cells” value (single drug 1.0 μg/ml, day 49 post infection)?
**A.** The value was 100 percentage of control.

**Q.** What about the “HIV-1-induced syncytium formation in CEM cells” value (single drug 1.0 μg/ml, day 53 post infection) of the same molecule?
**A.** The value was 100 percentage of control.

**Q.** And the “HIV-1-induced syncytium formation in CEM cells” value (single drug 1.0 μg/ml, day 56 post infection)?
**A.** The value was 100 percentage of control.

**Q.** What about the “HIV-1-induced syncytium formation in CEM cells” value (single drug 1.0 μg/ml, day 60 post infection) of the same molecule?
**A.** The value was 100 percentage of control.

**Q.** What about the “HIV-1-induced syncytium formation in CEM cells” value (single drug 1.0 μg/ml, day 64 post infection) of the same molecule?
**A.** Its value is 100 percentage of control.

**Q.** And the “HIV-1-induced syncytium formation in CEM cells” value (single drug 1.0 μg/ml, day 67 post infection)?
**A.** The value was 100 percentage of control.

**Q.** What about the “HIV-1-induced syncytium formation in CEM cells” value (single drug 1.0 μg/ml, day 71 post infection) of the same molecule?
**A.** Its value is 100 percentage of control.

**Q.** And the “HIV-1-induced syncytium formation in CEM cells” value (single drug 1.0 μg/ml, day 74 post infection)?
**A.** The value was 100 percentage of control.

**Q.** What about the “HIV-1-induced syncytium formation in CEM cells” value (single drug 1.0 μg/ml, day 77 post infection) of the same molecule?
**A.** The value was 100 percentage of control.

**Q.** What about the “HIV-1-induced syncytium formation in CEM cells” value (single drug 2.5 μg/ml, day 4 post infection) of the same molecule?
**A.** Its value is 0 percentage of control.

**Q.** And the “HIV-1-induced syncytium formation in CEM cells” value (single drug 2.5 μg/ml, day 7 post infection)?
**A.** The value was 0 percentage of control.

**Q.** And the “HIV-1-induced syncytium formation in CEM cells” value (single drug 2.5 μg/ml, day 11 post infection)?
**A.** The value was 0 percentage of control.

**Q.** And the “HIV-1-induced syncytium formation in CEM cells” value (single drug 2.5 μg/ml, day 14 post infection)?
**A.** The value was 12.5 percentage of control.

**Q.** What about the “HIV-1-induced syncytium formation in CEM cells” value (single drug 2.5 μg/ml, day 18 post infection) of the same molecule?
**A.** The value was 75 percentage of control.

**Q.** And the “HIV-1-induced syncytium formation in CEM cells” value (single drug 2.5 μg/ml, day 21 post infection)?
**A.** The value was 100 percentage of control.

**Q.** What about the “HIV-1-induced syncytium formation in CEM cells” value (single drug 2.5 μg/ml, day 25 post infection) of the same molecule?
**A.** Its value is 100 percentage of control.

**Q.** And the “HIV-1-induced syncytium formation in CEM cells” value (single drug 2.5 μg/ml, day 28 post infection)?
**A.** The value was 100 percentage of control.

**Q.** And the “HIV-1-induced syncytium formation in CEM cells” value (single drug 2.5 μg/ml, day 32 post infection)?
**A.** The value was 100 percentage of control.

**Q.** And the “HIV-1-induced syncytium formation in CEM cells” value (single drug 2.5 μg/ml, day 35 post infection)?
**A.** The value was 100 percentage of control.

**Q.** And the “HIV-1-induced syncytium formation in CEM cells” value (single drug 2.5 μg/ml, day 39 post infection)?
**A.** Its value is 100 percentage of control.

**Q.** And the “HIV-1-induced syncytium formation in CEM cells” value (single drug 2.5 μg/ml, day 42 post infection)?
**A.** Its value is 100 percentage of control.

**Q.** What about the “HIV-1-induced syncytium formation in CEM cells” value (single drug 2.5 μg/ml, day 46 post infection) of the same molecule?
**A.** The value was 100 percentage of control.

**Q.** What about the “HIV-1-induced syncytium formation in CEM cells” value (single drug 2.5 μg/ml, day 49 post infection) of the same molecule?
**A.** Its value is 100 percentage of control.

**Q.** What about the “HIV-1-induced syncytium formation in CEM cells” value (single drug 2.5 μg/ml, day 53 post infection) of the same molecule?
**A.** Its value is 100 percentage of control.

**Q.** What about the “HIV-1-induced syncytium formation in CEM cells” value (single drug 2.5 μg/ml, day 56 post infection) of the same molecule?
**A.** Its value is 100 percentage of control.

**Q.** What about the “HIV-1-induced syncytium formation in CEM cells” value (single drug 2.5 μg/ml, day 60 post infection) of the same molecule?
**A.** The value was 100 percentage of control.

**Q.** What about the “HIV-1-induced syncytium formation in CEM cells” value (single drug 2.5 μg/ml, day 64 post infection) of the same molecule?
**A.** The value was 100 percentage of control.

**Q.** What about the “HIV-1-induced syncytium formation in CEM cells” value (single drug 2.5 μg/ml, day 67 post infection) of the same molecule?
**A.** Its value is 100 percentage of control.

**Q.** What about the “HIV-1-induced syncytium formation in CEM cells” value (single drug 2.5 μg/ml, day 71 post infection) of the same molecule?
**A.** Its value is 100 percentage of control.

**Q.** What about the “HIV-1-induced syncytium formation in CEM cells” value (single drug 2.5 μg/ml, day 74 post infection) of the same molecule?
**A.** Its value is 100 percentage of control.

**Q.** And the “HIV-1-induced syncytium formation in CEM cells” value (single drug 2.5 μg/ml, day 77 post infection)?
**A.** Its value is 100 percentage of control.

**Q.** What about the “HIV-1-induced syncytium formation in CEM cells” value (single drug 5.0 μg/ml, day 4 post infection) of the same molecule?
**A.** The value was 0 percentage of control.

**Q.** And the “HIV-1-induced syncytium formation in CEM cells” value (single drug 5.0 μg/ml, day 7 post infection)?
**A.** Its value is 0 percentage of control.

**Q.** And the “HIV-1-induced syncytium formation in CEM cells” value (single drug 5.0 μg/ml, day 11 post infection)?
**A.** The value was 0 percentage of control.

**Q.** What about the “HIV-1-induced syncytium formation in CEM cells” value (single drug 5.0 μg/ml, day 14 post infection) of the same molecule?
**A.** The value was 12.5 percentage of control.

**Q.** What about the “HIV-1-induced syncytium formation in CEM cells” value (single drug 5.0 μg/ml, day 18 post infection) of the same molecule?
**A.** The value was 75 percentage of control.

**Q.** What about the “HIV-1-induced syncytium formation in CEM cells” value (single drug 5.0 μg/ml, day 21 post infection) of the same molecule?
**A.** Its value is 100 percentage of control.

**Q.** And the “HIV-1-induced syncytium formation in CEM cells” value (single drug 5.0 μg/ml, day 25 post infection)?
**A.** Its value is 100 percentage of control.

**Q.** And the “HIV-1-induced syncytium formation in CEM cells” value (single drug 5.0 μg/ml, day 28 post infection)?
**A.** Its value is 100 percentage of control.

**Q.** And the “HIV-1-induced syncytium formation in CEM cells” value (single drug 5.0 μg/ml, day 32 post infection)?
**A.** Its value is 100 percentage of control.

**Q.** And the “HIV-1-induced syncytium formation in CEM cells” value (single drug 5.0 μg/ml, day 35 post infection)?
**A.** Its value is 100 percentage of control.

**Q.** And the “HIV-1-induced syncytium formation in CEM cells” value (single drug 5.0 μg/ml, day 39 post infection)?
**A.** The value was 100 percentage of control.

**Q.** And the “HIV-1-induced syncytium formation in CEM cells” value (single drug 5.0 μg/ml, day 42 post infection)?
**A.** Its value is 100 percentage of control.

**Q.** What about the “HIV-1-induced syncytium formation in CEM cells” value (single drug 5.0 μg/ml, day 46 post infection) of the same molecule?
**A.** Its value is 100 percentage of control.

**Q.** And the “HIV-1-induced syncytium formation in CEM cells” value (single drug 5.0 μg/ml, day 49 post infection)?
**A.** Its value is 100 percentage of control.

**Q.** And the “HIV-1-induced syncytium formation in CEM cells” value (single drug 5.0 μg/ml, day 53 post infection)?
**A.** Its value is 100 percentage of control.

**Q.** And the “HIV-1-induced syncytium formation in CEM cells” value (single drug 5.0 μg/ml, day 56 post infection)?
**A.** The value was 100 percentage of control.

**Q.** What about the “HIV-1-induced syncytium formation in CEM cells” value (single drug 5.0 μg/ml, day 60 post infection) of the same molecule?
**A.** The value was 100 percentage of control.

**Q.** What about the “HIV-1-induced syncytium formation in CEM cells” value (single drug 5.0 μg/ml, day 64 post infection) of the same molecule?
**A.** Its value is 100 percentage of control.

**Q.** And the “HIV-1-induced syncytium formation in CEM cells” value (single drug 5.0 μg/ml, day 67 post infection)?
**A.** Its value is 100 percentage of control.

**Q.** And the “HIV-1-induced syncytium formation in CEM cells” value (single drug 5.0 μg/ml, day 71 post infection)?
**A.** The value was 100 percentage of control.

**Q.** What about the “HIV-1-induced syncytium formation in CEM cells” value (single drug 5.0 μg/ml, day 74 post infection) of the same molecule?
**A.** Its value is 100 percentage of control.

**Q.** And the “HIV-1-induced syncytium formation in CEM cells” value (single drug 5.0 μg/ml, day 77 post infection)?
**A.** Its value is 100 percentage of control.

**Q.** What about the “virus breakthrough delayed till day” value (single drug, higher concentrations) of the same molecule?
**A.** Its value is 14 days.
